In general, EC50 refers to the concentration needed to bring the measured effect to its halfway point. As a reminder, the Emax is the size of the effect at its maximum, as opposed to the concentration needed.

This note sets out measurements from patent publication US9388162B2, “Substituted morphinans and the use thereof” (Purdue Pharma L.P., priority 2012, dated 2016).

One test has as its target μ-opioid receptors (Homo sapiens (Human), UniProt P35372). Briefly: μ-opioid receptor [35S]GTPγS functional assay, U-2 OS cells. To be noted: μ GTP; for EC50: read-out: Activity Response μ EC50 (nM) [mean ± SEM]; for Emax: read-out: Activity Response μ Emax (%). The test is classed as biochemical. As for the experimental part: [^35S]GTPγS functional assays were conducted using freshly thawed μ-receptor membranes prepared from a cell line expressing recombinant μ opioid receptor in a HEK-293, CHO or U-2 OS cell background or purchased from a commercial source (Perkin Elmer, Shelton, Conn.; or DiscovRx, Fremont, Calif.). Assay reactions were prepared by sequentially adding the following reagents to binding buffer (100 mM NaCl, 10 mM MgCl2, 20 mM HEPES, pH 7.4) on ice (final concentrations indicated): membrane protein (0.026 mg/mL), saponin ([…]), GDP ([…]) and [^35S]GTPγS (0.20 nM; Perkin Elmer, Shelton, Conn.). The prepared membrane solution (190 μl/well) was transferred to 96-shallow well polypropylene plates containing 10 μl of 20× concentrated stock solutions of the agonist [D-Ala^2, N-methyl-Phe^4 Gly-ol^5]-enkephalin (DAMGO) prepared in dimethyl sulfoxide (DMSO). Plates were incubated for 30 min at about 25° C. with shaking. Reactions were terminated by rapid filtration onto 96-well Unifilter GF/B filter plates (Perkin Elmer, Shelton, Conn.) using a 96-well tissue harvester (Perkin Elmer, Shelton, Conn.) followed by three filtration washes with 200 μl of ice-cold wash buffer (10 mM NaH2PO4, 10 mM Na2HPO4, pH 7.4). Filter plates were subsequently dried at 50° C. for 2-3 hours. BetaScint scintillation cocktail (Perkin Elmer, Shelton, Conn.) was added (50 μl/well) and plates were counted using a Packard Top-Count for 1 min/well. Data were analyzed using the sigmoidal dose-response curve fitting functions in GraphPad PRISM v. 3.0, or an in-house function for non-linear, sigmoidal dose-response curve-fitting.
μ GTP EC50 is the concentration of a compound providing 50% of the maximal response for the compound at a μ-opioid receptor.
μ GTP Emax (%) is the maximal effect elicited by a compound relative to the effect elicited by DAMGO, a standard μ agonist. Generally, the μ GTP Emax (%) value measures the efficacy of a compound to treat or prevent pain or other Conditions.
The following tables provide results on the efficacy of binding and activity response of exemplified Compounds of the Invention at the μ- and κ-opioid receptors. In TABLE 3, binding affinity of certain Compounds of the Invention to the μ- and κ-opioid receptors was determined as described above. In TABLE 4, activity response of certain Compounds of the Invention to the μ- and κ-opioid receptors was determined as described above for functional assays using HEK-293 cells. In TABLE 5, activity response of certain Compounds of the Invention to the μ- and κ-opioid receptors was determined as described above using U-2 OS cells.
In general terms: GTPγS is a poorly hydrolysed GTP analogue; its binding reports G protein activation.

The target in the next test is κ opioid receptor (Homo sapiens (Human), UniProt P41145). Description: κ-opioid receptor [35S]GTPγS functional assay, U-2 OS cells. The conditions noted are these: κ GTP; for EC50: read-out: Activity Response κ EC50 (nM) [mean ± SEM]; for Emax: relative to U69,593, read-out: Activity Response κ Emax (%). The test is classed as biochemical. The method, then:
Membranes from HEK-293 cells, CHO or U-2 OS cells expressing the recombinant human kappa opioid receptor (κ) were prepared by lysing cells in ice cold hypotonic buffer (2.5 mM MgCl2, 50 mM HEPES, pH 7.4) (10 mL/10 cm dish) followed by homogenization with a tissue grinder/Teflon pestle. Membranes were collected by centrifugation at 30,000×g for 15 min at 4° C. and pellets were resuspended in hypotonic buffer to a final concentration of 1-3 mg/mL. Protein concentrations were determined using the BioRad protein assay reagent with bovine serum albumen as standard. Aliquots of κ receptor membranes were stored at −80° C.
Functional [^35S]GTPγS binding assays were conducted as follows. κ opioid receptor membrane solution was prepared by sequentially adding final concentrations of 0.026 μg/μl κ membrane protein (in-house), 10 μg/mL saponin, 3 μM GDP and 0.20 nM [^35S]GTPγS to binding buffer (100 mM NaCl, 10 mM MgCl2, 20 mM HEPES, pH 7.4) on ice. The prepared membrane solution (190 μl/well) was transferred to 96-shallow well polypropylene plates containing 10 μl of 20× concentrated stock solutions of agonist prepared in DMSO. Plates were incubated for 30 min at a temperature of about 25° C. with shaking. Reactions were terminated by rapid filtration onto 96-well Unifilter GF/B filter plates (Perkin Elmer, Shelton, Conn.) using a 96-well tissue harvester (Packard) and followed by three filtration washes with 200 μl ice-cold binding buffer (10 mM NaH2PO4, 10 mM Na2HPO4, pH 7.4). Filter plates were subsequently dried at 50° C. for 2-3 hours. Fifty μl/well scintillation cocktail (Perkin Elmer, Shelton, Conn.) was added and plates were counted in a Packard Top-Count for 1 min/well.
κ GTP EC50 is the concentration of a compound providing 50% of the maximal response for the compound at a κ receptor.
κ GTP Emax (%) is the maximal effect elicited by a compound relative to the effect elicited by U69,593.
In TABLE 3, binding affinity of certain Compounds of the Invention to the μ- and κ-opioid receptors was determined as described above. In TABLE 4, activity response of certain Compounds of the Invention to the μ- and κ-opioid receptors was determined as described above for functional assays using HEK-293 cells. In TABLE 5, activity response of certain Compounds of the Invention to the μ- and κ-opioid receptors was determined as described above using U-2 OS cells.

Bounds are passed on as bounds.

`COc1ccc2c(c1)[C@]13CCN(CC4CC4)[C@H](C2)[C@]1(O)C[C@H](OCC(C)C)C(=O)C3` [Compound 23, (4bR,7S,8aS,9R)-11-(cyclopropylmethyl)-8a-hydroxy-7-isobutoxy-3-methoxy-8,8a,9,10-tetrahydro-5H-9,4b-(epiminoethano)phenanthren-6(7H)-one]: the EC50 came out at 2100 ± 735 nM at μ-opioid receptors and 5560 ± 481 nM on κ opioid receptor. Moreover, the “Activity Response μ Emax (%)” value on μ-opioid receptors (relative to DAMGO) was 15.7 ± 3.71%. For the same molecule, the “Activity Response κ Emax (%)” value at κ opioid receptor (relative to U69,593) came out at 90.0 ± 1.00%.

With `COc1ccc2c(c1)[C@]13CCN(CC4CC4)[C@H](C2)[C@]1(O)C[C@H](O)C(=O)C3` [Compound 25, (4bR,7S,8aS,9R)-11-(cyclopropylmethyl)-7,8a-dihydroxy-3-methoxy-8,8a,9,10-tetrahydro-5H-9,4b-(epiminoethano)phenanthren-6(7H)-one], the half-maximal effective concentration (EC50) on μ-opioid receptors came to 578 ± 91.8 nM; at κ opioid receptor, 876 ± 18.8 nM. The results for the Emax on μ-opioid receptors (relative to DAMGO) and on κ opioid receptor were 36 ± 3.51% and 106 ± 3.28%, respectively.

Regarding `COc1ccc2c(c1)[C@]13CCN(CC4CC4)[C@H](C2)[C@]1(O)C[C@H](NC(=O)C(C)C)C(=O)C3` [Compound 26, N-((4bR,7S,8aS,9R)-11-(cyclopropylmethyl)-8a-hydroxy-3-methoxy-6-oxo-6,7,8,8a,9,10-hexahydro-5H-9,4b-(epiminoethano)phenanthren-7-yl)isobutyramide], the figures for the EC50 on μ-opioid receptors and at κ opioid receptor were 7110 ± 633 nM and 7210 ± 438 nM, respectively. Further, the maximal effect (Emax) on μ-opioid receptors (relative to DAMGO) came out at 31 ± 2.08%; on κ opioid receptor, 104 ± 2.52%.

For the molecule `CC(C)C(=O)N[C@H]1C[C@@]2(O)[C@H]3Cc4ccc(O)cc4[C@@]2(CCN3CC2CC2)CC1=O` [Compound 27, N-((4bR,7S,8aS,9R)-11-(cyclopropylmethyl)-3,8a-dihydroxy-6-oxo-6,7,8,8a,9,10-hexahydro-5H-9,4b-(epiminoethano)phenanthren-7-yl)isobutyramide], the values for the 50% effective concentration (EC50) at μ-opioid receptors and at κ opioid receptor were > 200000 nM and 24.7 ± 3.18 nM, respectively. Moreover, the maximal response (Emax) at μ-opioid receptors (relative to DAMGO) came out at 8 ± 2.12%; on κ opioid receptor, 92.7 ± 3.18%.

As for `CC(=O)N[C@H]1C[C@@]2(O)[C@H]3Cc4ccc(O)cc4[C@@]2(CCN3CC2CC2)CC1=O` [Compound 28, N-((4bR,7S,8aS,9R)-11-(cyclopropylmethyl)-3,8a-dihydroxy-6-oxo-6,7,8,8a,9,10-hexahydro-5H-9,4b-(epiminoethano)phenanthren-7-yl)acetamide], the concentration for a half-maximal effect (EC50) on μ-opioid receptors is > 200000 nM; on κ opioid receptor, 27.1 ± 3.29 nM. Besides, the Emax stood at 2.5% at μ-opioid receptors (relative to DAMGO) and 86.7 ± 2.4% on κ opioid receptor.

For `CCC(=O)N[C@H]1C[C@@]2(O)[C@H]3Cc4ccc(O)cc4[C@@]2(CCN3CC2CC2)CC1=O` [Compound 29, N-((4bR,7S,8aS,9R)-11-(cyclopropylmethyl)-3,8a-dihydroxy-6-oxo-6,7,8,8a,9,10-hexahydro-5H-9,4b-(epiminoethano)phenanthren-7-yl)propionamide], the EC50 is > 200000 nM on μ-opioid receptors and 14.6 ± 1.86 nM on κ opioid receptor. Besides, the maximal response (Emax) at μ-opioid receptors (relative to DAMGO) came out at 7.25 ± 1.89%; at κ opioid receptor, 98.7 ± 5.21%.

On to `CC(C)CCC(=O)N[C@H]1C[C@@]2(O)[C@H]3Cc4ccc(O)cc4[C@@]2(CCN3CC2CC2)CC1=O` [Compound 30, N-((4bR,7S,8aS,9R)-11-(cyclopropylmethyl)-3,8a-dihydroxy-6-oxo-6,7,8,8a,9,10-hexahydro-5H-9,4b-(epiminoethano)phenanthren-7-yl)-4-methylpentanamide], for which the figures for the concentration giving a half-maximal response (EC50) on μ-opioid receptors and at κ opioid receptor were 9.61 ± 0.83 nM and 1.61 ± 0.12 nM, respectively. In addition, the Emax on μ-opioid receptors (relative to DAMGO) turned out to be 51 ± 2.65%; at κ opioid receptor, 97.7 ± 3.18%.

Consider `CC(C)CCCC(=O)N[C@H]1C[C@@]2(O)[C@H]3Cc4ccc(O)cc4[C@@]2(CCN3CC2CC2)CC1=O` [Compound 31, N-((4bR,7S,8aS,9R)-11-(cyclopropylmethyl)-3,8a-dihydroxy-6-oxo-6,7,8,8a,9,10-hexahydro-5H-9,4b-(epiminoethano)phenanthren-7-yl)-5-methylhexanamide], for which the values for the EC50 at μ-opioid receptors and at κ opioid receptor were 9.65 ± 0.22 nM and 2.59 ± 0.14 nM, respectively. Also, the Emax turned out to be 73.7 ± 2.6% on μ-opioid receptors (relative to DAMGO) and 90.7 ± 6.57% at κ opioid receptor.

Turning to `CC(C)(C)C(=O)N[C@H]1C[C@@]2(O)[C@H]3Cc4ccc(O)cc4[C@@]2(CCN3CC2CC2)CC1=O` [Compound 32, N-((4bR,7S,8aS,9R)-11-(cyclopropylmethyl)-3,8a-dihydroxy-6-oxo-6,7,8,8a,9,10-hexahydro-5H-9,4b-(epiminoethano)phenanthren-7-yl)pivalamide], the EC50 at μ-opioid receptors was 18.6 ± 8.05 nM; at κ opioid receptor, 17.5 ± 2.66 nM. Also, the maximal effect (Emax) at μ-opioid receptors (relative to DAMGO) stood at 11.3 ± 0.88%; on κ opioid receptor, 113 ± 3.61%.

For `CC(C)CC(=O)N[C@H]1C[C@@]2(O)[C@H]3Cc4ccc(O)cc4[C@@]2(CCN3CC2CC2)CC1=O` [Compound 33, N-((4bR,7S,8aS,9R)-11-(cyclopropylmethyl)-3,8a-dihydroxy-6-oxo-6,7,8,8a,9,10-hexahydro-5H-9,4b-(epiminoethano)phenanthren-7-yl)-3-methylbutanamide], the concentration for a half-maximal effect (EC50) was > 200000 nM on μ-opioid receptors and 36.1 ± 3.14 nM at κ opioid receptor. The maximal effect (Emax) on μ-opioid receptors (relative to DAMGO) turned out to be 2.5%; on κ opioid receptor, 52 ± 4.93%.

Consider `O=C(N[C@H]1C[C@@]2(O)[C@H]3Cc4ccc(O)cc4[C@@]2(CCN3CC2CC2)CC1=O)C1CC1` [Compound 34, N-((4bR,7S,8aS,9R)-11-(cyclopropylmethyl)-3,8a-dihydroxy-6-oxo-6,7,8,8a,9,10-hexahydro-5H-9,4b-(epiminoethano)phenanthren-7-yl)cyclopropanecarboxamide], for which the EC50 at μ-opioid receptors is > 200000 nM; on κ opioid receptor it was 12.6 ± 2.04 nM. Further, the maximal response (Emax) on μ-opioid receptors (relative to DAMGO) came out at 6.33 ± 2.19%; on κ opioid receptor it was 101 ± 3.33%.

Regarding `O=C(N[C@H]1C[C@@]2(O)[C@H]3Cc4ccc(O)cc4[C@@]2(CCN3CC2CC2)CC1=O)C1CCCC1` [Compound 35, N-((4bR,7S,8aS,9R)-11-(cyclopropylmethyl)-3,8a-dihydroxy-6-oxo-6,7,8,8a,9,10-hexahydro-5H-9,4b-(epiminoethano)phenanthren-7-yl)cyclopentanecarboxamide], the EC50 at μ-opioid receptors was > 200000 nM; on κ opioid receptor it was 13.6 ± 1.04 nM. Moreover, the Emax on μ-opioid receptors (relative to DAMGO) is 2%; on κ opioid receptor, 85.7 ± 2.4%.

As to `COc1ccc2c(c1)[C@]13CCN(C)[C@H](C2)[C@]1(O)C[C@H](CC(=O)O)C(=O)C3` [Compound 60, 2-((4bR,7R,8aS,9R)-8a-hydroxy-3-methoxy-11-methyl-6-oxo-6,7,8,8a,9,10-hexahydro-5H-9,4b-(epiminoethano)phenanthren-7-yl)acetic acid], on κ opioid receptor, the 50% effective concentration (EC50) turned out to be 14900 ± 1320 nM and the Emax was 84.3 ± 0.67%.
